We go through 13 molecules from patent US20220218679A1, “NOVEL COMPOUNDS AND PHARMACEUTICAL COMPOSITIONS THEREOF FOR THE TREATMENT OF INFLAMMATORY DISORDERS” (Galapagos NV, priority 2019, published 2022).

In brackets after ≈: the same amount, converted by molar mass. Like-named read-outs stand apart in the source and are kept apart here.

The test system of data set [1] is CL097 triggered IFNα release in human whole blood. Nature of the data set: Ex vivo human IFNα release inhibition (human whole blood assay). Type of data set: cell-based. To be noted: CL097 2 μg/mL, 3 h 30 min at 37° C. An excerpt:
4.10.1. Ex Vivo Human IFNα and TNFα Release Inhibition (Human Whole Blood Assay)
The aim of the assay is to evaluate the activity of compounds of the invention on the activated TLR/IRAK-4 pathway in an ex vivo human whole blood setting. Toll-like receptors (TLRs) are pattern recognition receptors that recognize a wide variety of microbial molecules, called pathogen-associated molecular patterns (PAMPs). Human TLR7 and TLR8 recognize imidazoquinoline compounds (e.g., CL097—CAS n #1026249-18-2) and single stranded RNAs as their natural ligands. Activation of TLRs leads to the production of several cytokines (e.g., IFNα, TNFα, IL-8, IL-6) by the TLR agonist-treated cells, whereas IRAK4 leads to the production of IFNα. Cytokine release is used as readout in this assay and represents a measure for the level of inhibition of the TLR/IRAK-4 pathway by the tested compound. It should be noted that in the context of the complete organism, other sources for these cytokines exist that are not dependent on the TLR/IRAK-4 pathway, such as e.g., macrophages (upon activation of the Fcγ receptor (Yan et al., 2012)) or T cells (upon activation of the T cell receptor (Brehm et al., 2005)).
4.10.1.1. Experimental Design
Blood was collected from healthy volunteers into lithium heparin tubes by venipuncture, then gently inverted several times to prevent clotting and incubated for at least 15 min at 37° C. on a rocking mixer shaker. Then, 100 μL of blood was dispensed into polypropylene 96-well microplate and pre-incubated in duplicate with 0.3% DMSO or test compound at different concentrations (from 30 to 0.01 μM, 3-fold dilutions to get 0.3% DMSO at the final) for 15 min at 37° C. After this pre-incubation, blood was triggered with CL097 (2 μg/mL from 1 mg/mL solution in water; InvivoGen, tlrl-c97) for 3 h 30 min at 37° C. Microtubes were centrifuged at 5000×g for 10 min at 4° C. and approximately 40 μL of plasma were collected into a polystyrene 96-well plate. Plasma could be analyzed freshly, within 30 min after triggering, or frozen at −80° C. Finally, the quantification of TNFα and IFNα were performed in the plasma using AlphaLISA Kit for TNFα and IFNα according to the manufacturer's instructions and read on the Ensight (PerkinElmer).
A standard curve was created by plotting on log-log the mean […] on the y-axis against the concentration on the x-axis and a 4-parameters logistic regression (4PL) was made through the points. For each blood sample, the IFNα concentrations of the samples were determined from the fit. Data were then expressed as a percentage of inhibition (PIN) for each replicate using the formula:
With mean IFNα with CL097=mean IFNα concentration of replicate samples triggered with CL097; IFNαsample1=IFNα concentration of sample 1; mean IFNα with vehicle=mean IFNα concentration of replicate samples treated with vehicle.
Curve fitting for pIC50 determination were generated using mean PIN±sem. Graphs and pIC50 calculations were derived using Prism 5.03 software (GraphPad).

Another data set can be described thus: Thermodynamic solubility. The class given is physicochemical. To be noted: for solubility thermodynamic at 24 h: 37 °C, thermodynamic from solid. An excerpt:
4.2. Thermodynamic Solubility
Poor solubility, in particular poor thermodynamic solubility can limit the absorption of compounds from the gastrointestinal tract which in turn may reduce oral bioavailability.
Thermodynamic solubility investigates the solubility of a compound as a saturated solution in equilibrium, by opposition to kinetic solubility, which measures the solubility of a metastable solution where supersaturation may occur and provide over estimation of the actual solubility of the compound. (Klein, 2010)
4.2.2. Thermodynamic Solubility—Protocol 2
In a 8 mL glass vial, 1-2 mg of dry matter of compound were added and stirred with the suitable buffers (Fed State Simulated Intestine Fluid, FeSSIF, or Fasted State Simulated Intestine Fluid, FaSSIF, or Fasted State Simulated Gastric Fluid, FaSSGF, or phosphate buffer pH 7.4) for 24 h at r.t. (for the buffer pH 7.4) or 37° C. (for the GI fluids). The concentration of the mixture was 1 mg/mL.
A volume of 1000 μL were sampled, centrifuged for 10 min at 10 000 rpm and 500 μL of the supernatant were filtered on captiva plate. The samples were diluted in duplicates in DMSO (F100 and F10). Then, a final dilution (F100) in 80/20 H2O/MeCN containing the internal standard (warfarin) was used for LCMS-MS analysis.
A standard curve was made starting from a 40,000 ng/mL stock in DMSO, freshly prepared from dry matter. Then, successive concentrations at 15,000, 11,000, 6,000, 2,500, 1,000, 375, 150 and 75 ng/mL in DMSO were prepared.
Three quality control samples were made: one of 10,000, 1,500 and 200 ng/mL in DMSO, also starting from the DMSO working stock solution at 40,000 ng/mL.
The standard curve and quality controls were diluted a F100 in 80/20 H2O/MeCN (with internal standard) and analyzed on LC/MS-MS (API4000 or API5500).
The samples were analyzed on LC-MS with a flow rate of 0.6 mL/min. The mobile phase A was 0.1% formic acid in water and the mobile phase B was 0.1% formic acid in 90% MeCN and 10% of H2O. The sample was run under positive or negative ion spray on Pursuit C18—5 μm (2.0×20 mm) column, from Agilent.
The ratio analyte/internal standard peaks areas of the standard curve were plotted in a graph and a linear or polynomial of the second order equation was used to calculate the unknown concentrations of the test compound.
Solubility values were reported in μg/mL.

[2] abbreviates: Fasted State Simulated Gastric Fluid, 24 h, 37° C.
Where [3] appears, read: Fasted State Simulated Intestine Fluid (FaSSIF), fassif, Fasted State Simulated Intestine Fluid, read-out: Tsol FaSSIF.
[4] abbreviates: Fed State Simulated Intestine Fluid (FeSSIF), fessif, Fed State Simulated Intestine Fluid, read-out: Tsol FeSSIF.
[5] abbreviates: Fasted State Simulated Gastric Fluid (FaSSGF), fassgf or other biorelevant, Fasted State Simulated Gastric Fluid, read-out: Tsol FaSSGF.

One may read the IC50 as the concentration that gives 50% inhibition. Low readings indicate inhibition by little substance, high ones a need for much substance.

With `COc1cn2nc(CC(F)C(C)(C)O)cc2cc1NC(=O)c1cccn(C2CC2)c1=O` (single isomer, unassigned; enantiomer a) [Compound 25, 1-cyclopropyl-N-[2-(2-fluoro-3-hydroxy-3-methyl-butyl)-6-methoxy-pyrazolo[1,5-a]pyridin-5-yl]-2-oxo-pyridine-3-carboxamide Enantiomer A], the IC50 in data set [1] (Homo sapiens) was in the range of 500 to 1000 nM. The “Tsol FaSSGF” value in “Thermodynamic solubility” (setting [2]) is 389 µg/mL. In addition, the solubility thermodynamic at 24 h in “Thermodynamic solubility” (setting [3]) was 20.2 µg/mL (≈ 47.1 µM); in “Thermodynamic solubility” (setting [4]), 59.6 µg/mL (≈ 139 µM).

As to `COc1cn2nc(CC(F)C(C)(C)O)cc2cc1NC(=O)c1cccn(C2CC2)c1=O` (single isomer, unassigned; enantiomer b) [Compound 26, 1-cyclopropyl-N-[2-(2-fluoro-3-hydroxy-3-methyl-butyl)-6-methoxy-pyrazolo[1,5-a]pyridin-5-yl]-2-oxo-pyridine-3-carboxamide Enantiomer B], in data set [1], the IC50 lay in the range of 1000 to 5000 nM. For the same molecule, the “Tsol FaSSGF” value in the data set “Thermodynamic solubility” (setting [2]) is 818 µg/mL. Besides, the “Tsol FaSSIF” value in “Thermodynamic solubility” (Fasted State Simulated Intestine Fluid, 24 h, 37° C.) was 34.5 µg/mL. Besides, the “Tsol FeSSIF” value in the data set “Thermodynamic solubility” (Fed State Simulated Intestine Fluid, 24 h, 37° C.) is 52.7 µg/mL.

Molecule `COc1cn2nc(CCC(C)(C)O)cc2cc1NC(=O)c1cccn(C2CC2)c1=O` [Compound 1, 1-cyclopropyl-N-[2-(3-hydroxy-3-methylbutyl)-6-methoxypyrazolo[1,5-a]pyridin-5-yl]-2-oxopyridine-3-carboxamide] gave an IC50 in data set [1] (Homo sapiens) of 0.1 to 500 nM. For the same molecule, the solubility thermodynamic at 24 h in “Thermodynamic solubility” (setting [3]) is 11.3 µg/mL (≈ 27.5 µM); in the data set “Thermodynamic solubility” (setting [4]) it was 83.4 µg/mL (≈ 203 µM).

Take `COc1cn2nc(CCC(C)(C)O)cc2cc1NC(=O)c1cccn(C)c1=O` [Compound 2, N-[2-(3-hydroxy-3-methylbutyl)-6-methoxypyrazolo[1,5-a]pyridin-5-yl]-1-methyl-2-oxopyridine-3-carboxamide]: the IC50 in data set [1] (Homo sapiens) was 500 to 1000 nM. The solubility thermodynamic at 24 h in the data set “Thermodynamic solubility” (setting [3]) is 10.2 µg/mL (≈ 26.5 µM).

`COc1cn2nc(CCC(C)(C)O)cc2cc1NC(=O)c1cccc(C(F)(F)F)n1` [Compound 3, N-[2-(3-hydroxy-3-methylbutyl)-6-methoxypyrazolo[1,5-a]pyridin-5-yl]-6-(trifluoromethyl)pyridine-2-carboxamide]: in data set [1] (Homo sapiens), the IC50 fell in the range of 1000 to 5000 nM. In addition, the figures for the solubility thermodynamic at 24 h in “Thermodynamic solubility” (setting [5]), in the data set “Thermodynamic solubility” (setting [3]) and in “Thermodynamic solubility” (setting [4]) were 106 µg/mL (≈ 251 µM), 0.801 µg/mL (≈ 1.9 µM) and 27.6 µg/mL (≈ 65.3 µM), respectively.

For `CC(C)(O)CCc1cc2cc(NC(=O)c3cccc(C(F)(F)F)n3)c(C(N)=O)cn2n1` [Compound 4, 2-(3-hydroxy-3-methylbutyl)-5-[[6-(trifluoromethyl)pyridine-2-carbonyl]amino]pyrazolo[1,5-a]pyridine-6-carboxamide], the IC50 in data set [1] (Homo sapiens) was 1000 to 5000 nM. Moreover, the solubility thermodynamic at 24 h was less than 0.75 µg/mL in “Thermodynamic solubility” (setting [5]), 0.75 µg/mL (≈ 1.72 µM) in “Thermodynamic solubility” (setting [3]) and 6.01 µg/mL (≈ 13.8 µM) in the data set “Thermodynamic solubility” (setting [4]).

As to `CNC(=O)c1cn2nc(CCC(C)(C)O)cc2cc1NC(=O)c1cccc(C(F)(F)F)n1` [Compound 5, 2-(3-hydroxy-3-methylbutyl)-N-methyl-5-[[6-(trifluoromethyl)pyridine-2-carbonyl]amino]pyrazolo[1,5-a]pyridine-6-carboxamide], in data set [1] (Homo sapiens), the IC50 was 1000 to 5000 nM. The solubility thermodynamic at 24 h is 1.96 µg/mL (≈ 4.36 µM) in “Thermodynamic solubility” (setting [5]), 2.26 µg/mL (≈ 5.03 µM) in the data set “Thermodynamic solubility” (setting [3]) and 14.2 µg/mL (≈ 31.6 µM) in “Thermodynamic solubility” (setting [4]).

The molecule `COc1cn2nc(CCC(C)(C)O)cc2cc1NC(=O)c1cccn(C(F)F)c1=O` [Compound 7, 1-(difluoromethyl)-N-[2-(3-hydroxy-3-methyl-butyl)-6-methoxy-pyrazolo[1,5-a]pyridin-5-yl]-2-oxo-pyridine-3-carboxamide] yielded a half-maximal inhibitory concentration (IC50) in data set [1] (Homo sapiens) of 1000 to 5000 nM. The figures for the solubility thermodynamic at 24 h in “Thermodynamic solubility” (setting [5]), in “Thermodynamic solubility” (setting [3]) and in the data set “Thermodynamic solubility” (setting [4]) were greater than 1000 µg/mL, 28 µg/mL (≈ 66.6 µM) and 93.9 µg/mL (≈ 223 µM), respectively.

Turning to `CNC(=O)c1cn2nc(C3CCCS(=O)(=O)C3)cc2cc1NC(=O)c1cccc(C(F)(F)F)n1` (centres unmarked) [Compound 8, 2-(1,1-dioxothian-3-yl)-N-methyl-5-[[6-(trifluoromethyl)pyridine-2-carbonyl]amino]pyrazolo[1,5-a]pyridine-6-carboxamide], the solubility thermodynamic at 24 h in “Thermodynamic solubility” (setting [5]), in “Thermodynamic solubility” (setting [3]) and in the data set “Thermodynamic solubility” (setting [4]) was less than 0.75 µg/mL each time.

`CCOc1cn2nc(CCC(C)(C)O)cc2cc1NC(=O)c1cccn(C(F)F)c1=O` [Compound 9, 1-(difluoromethyl)-N-[6-ethoxy-2-(3-hydroxy-3-methyl-butyl)pyrazolo[1,5-a]pyridin-5-yl]-2-oxo-pyridine-3-carboxamide] came in with an IC50 in data set [1] (Homo sapiens) of 1000 to 5000 nM. The solubility thermodynamic at 24 h in the data set “Thermodynamic solubility” (setting [5]) is 3.82 µg/mL (≈ 8.79 µM); in the data set “Thermodynamic solubility” (setting [3]) it was 3.96 µg/mL (≈ 9.12 µM).

For `CNC(=O)c1cn2nc(C3CCN(C)CC3)cc2cc1NC(=O)c1cccc(C(F)(F)F)n1` [Compound 12, N-methyl-2-(1-methyl-4-piperidyl)-5-[[6-(trifluoromethyl)pyridine-2-carbonyl]amino]pyrazolo[1,5-a]pyridine-6-carboxamide], the IC50 in data set [1] (Homo sapiens) lay within 1000 to 5000 nM. Besides, the solubility thermodynamic at 24 h was greater than 1000 µg/mL in the data set “Thermodynamic solubility” (setting [5]) and 183 µg/mL (≈ 397 µM) in “Thermodynamic solubility” (setting [3]).

Turning to `COc1c(NC(=O)c2cccn(C3CC3)c2=O)cc2cc(CCC(C)(C)O)nn2c1C` [Compound 13, 1-cyclopropyl-N-[2-(3-hydroxy-3-methyl-butyl)-6-methoxy-7-methyl-pyrazolo[1,5-a]pyridin-5-yl]-2-oxo-pyridine-3-carboxamide], the solubility thermodynamic at 24 h in the data set “Thermodynamic solubility” (setting [5]) was 8.45 µg/mL (≈ 19.9 µM); in the data set “Thermodynamic solubility” (setting [3]) it was 1.77 µg/mL (≈ 4.17 µM).

`NC(=O)c1cn2nc(C3CCOCC3)cc2cc1NC(=O)c1cccc(C(F)F)n1` [Compound 16, 5-[[6-(difluoromethyl)pyridine-2-carbonyl]amino]-2-tetrahydropyran-4-yl-pyrazolo[1,5-a]pyridine-6-carboxamide]: the solubility thermodynamic at 24 h in “Thermodynamic solubility” (setting [3]) was 1.29 µg/mL (≈ 3.11 µM).
